Calls of active or inactive are those of the source. No rule for the calls is given here. Some results are limits rather than exact numbers.

The target in the test is Serine/threonine-protein kinase mTOR (Homo sapiens) (UniProt P42345). In words: mTOR FRB domain ligand binding – biophysical, NMR (AID 1648). The conditions noted are these: NMR binding to FRB domain, chemical shift.
Chain of Serine/threonine-protein kinase mTOR (Homo sapiens) (P42345 2015-2114): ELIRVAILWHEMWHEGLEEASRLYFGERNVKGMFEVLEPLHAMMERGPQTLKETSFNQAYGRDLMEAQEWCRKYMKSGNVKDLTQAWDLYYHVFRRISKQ
For the molecule `Nc1ncnc(Nc2ccccc2C(F)(F)F)n1`, the Kd (usually a measure of binding affinity in units of concentration) was > 4 mM (inactive).

`CSc1ccc2nnc(-c3cccnc3)n2n1`: the Kd was > 4 mM (inactive).

Consider `COCc1nc(-c2cc(Br)ccc2OC)no1`, for which the Kd was > 4 mM (inactive).

As for `Cn1cccc1C=C1C(=O)NC(=S)NC1=O`, the Kd is > 4 mM (inactive).

For `Nc1nnc(SCc2ccccc2Cl)s1`, the Kd is > 4 mM (inactive).

On to `COc1ccccc1NC(=O)c1snnc1C`, for which the Kd was > 4 mM (inactive).

Turning to `NC(=O)CSc1ccc2nnc(-c3ccccc3)n2n1`, the Kd was > 4 mM (inactive).

On to `CC1CN(Cc2ccccn2)CCC1=O` (centres undefined), for which the Kd is > 4 mM (inactive).

On to `Nc1scc[n+]1CC(=O)[O-]`, for which the Kd was > 4 mM (inactive).

Take `CC1CC[C@]2(NC1)O[C@H]1CC3C4CC[C@H]5C[C@@H](O)CC[C@]5(C)C4CC[C@]3(C)[C@H]1[C@@H]2C` (some centres undefined): the Kd was > 4 mM (inactive).

Turning to `O=C1C[C@@H](c2ccc(O)cc2)Oc2cc(O)cc(O)c21`, the Kd is > 4 mM (inactive).

Consider `COc1ccc(NC(=O)C(N)=O)cc1Cl`, for which the Kd was > 4 mM (inactive).

Turning to `COCCn1c(SC)nc2c1c(=O)[nH]c(=O)n2C`, the Kd is > 4 mM (inactive).

On to `Cn1nc(C(=O)NCc2cccnc2)c2ccccc2c1=O`, for which the Kd is > 4 mM (inactive).

As for `COc1cc2nc[nH]c(=O)c2cc1OC`, the Kd was > 4 mM (inactive).

Take `Cc1ccc(C(C)C)cc2c(C)ccc1-2`: the Kd was > 4 mM (inactive).

Take `COC(=O)c1cccc2cc[nH]c12`: the Kd was > 4 mM (inactive).

Regarding `O=c1cccc2n1C[C@H]1CNCC2C1`, the Kd was > 4 mM (inactive).

Consider `Nc1cc(=O)[nH]c(=S)n1-c1ccc(F)cc1`, for which the Kd was > 4 mM (inactive).

On to `O=C1c2cccnc2C(=O)N1Cc1ccc2c(c1)OCO2`, for which the Kd was > 4 mM (inactive).

For `NC(=O)CSc1ccc(-c2ccco2)nn1`, the Kd was > 4 mM (inactive).

For the molecule `CC1=C(/C=C/C(C)=C/C=C/C(C)=C/C=C/C=C(C)/C=C/C=C(C)/C=C/C(=O)[C@]2(C)C[C@@H](O)CC2(C)C)C(C)(C)C[C@H](O)C1`, the Kd is > 4 mM (inactive).

As to `C[C@H]1CCCC(=O)CCC/C=C/c2cc(O)cc(O)c2C(=O)O1`, the Kd was > 4 mM (inactive).

Turning to `CC(C)=CC1C(C(=O)O)C1(C)C` (centres undefined), the Kd was > 4 mM (inactive).

Turning to `CCC(=O)Nc1cccc(NC(C)=O)c1`, the Kd was > 4 mM (inactive).

For the molecule `COc1ccc2c(c1)OCc1c-2oc2cc(OC)ccc12`, the Kd was > 4 mM (inactive).

As for `CCNC(=S)NS(=O)(=O)c1ccccc1`, the Kd is > 4 mM (inactive).

For `Cc1nc(-c2cccc(N)c2)cs1`, the Kd was > 4 mM (inactive).

As to `CC12CN([N+](=O)[O-])C3(C(N)=O)CC1CCC23C` (centres undefined), the Kd is > 4 mM (inactive).

Consider `Cc1sc2nc3n(c(=O)c2c1C)CCCS3`, for which the Kd is > 4 mM (inactive).

Regarding `CCc1c(C)n([O-])c2c([n+]1=O)CCC2`, the Kd is > 4 mM (inactive).

With `N/C(=N/O)C1COc2ccccc2O1` (centres undefined), the Kd is > 4 mM (inactive).

In the case of `CC(=O)N(c1ccccc1)C1C=CS(=O)(=O)C1` (centres undefined), the Kd was > 4 mM (inactive).

In the case of `COc1ccc(C2NC(C(=O)O)CS2)cc1` (centres undefined), the Kd is > 4 mM (inactive).

Take `CC(=O)Oc1c(C)c(C)c2c(c1C)CCC(C)(CCCC(C)CCCC(C)CCCC(C)C)O2` (centres undefined): the Kd is > 4 mM (inactive).

For `Cn1c(=O)c2[nH]cnc2n(-c2ccccc2)c1=O`, the Kd is > 4 mM (inactive).

As to `CC(=O)OCC(=O)[C@@]1(O)CCC2C3CC[C@@H]4C[C@H](O)CC[C@]4(C)C3C(=O)C[C@@]21C` (some centres undefined), the Kd is > 4 mM (inactive).

For the molecule `O=C(O)/C=C/c1ccc(O)c(O)c1`, the Kd is > 4 mM (inactive).

For `CC(=O)Nc1ccc2c(c1)CCC2=O`, the Kd is > 4 mM (inactive).

For the molecule `CC(=O)Oc1c(C)cc(O)c2ccccc12`, the Kd was > 4 mM (inactive).

In the case of `O=C(NC1=NCCS1)c1ccc([N+](=O)[O-])cc1Cl`, the Kd is > 4 mM (inactive).

Regarding `CC(C)=CC(=O)Nc1ccccc1Br`, the Kd was > 4 mM (inactive).

For `Cc1nnc(NC(=O)C(C)Sc2nncn2C)s1` (centres undefined), the Kd is > 4 mM (inactive).

`Cc1n[nH]c(=S)n(/N=C/c2cccs2)c1=O`: the Kd was > 4 mM (inactive).

On to `O=C1NC(=S)N/C1=C\c1ccccc1`, for which the Kd was > 4 mM (inactive).

With `Cc1cc(C(=O)NCc2cccs2)c(C)o1`, the Kd is > 4 mM (inactive).

In the case of `Cc1nn(-c2ccccc2)nc1CO`, the Kd was > 4 mM (inactive).

In the case of `Cc1cc(=O)n2[nH]c(N)nc2n1`, the Kd is > 4 mM (inactive).

In the case of `Cn1c(NCC(=O)O)nc2c1c(=O)[nH]c(=O)n2C`, the Kd was > 4 mM (inactive).

Regarding `COc1ccc(C(=O)NCC(=O)O)cc1`, the Kd is > 4 mM (inactive).

As for `Oc1ccc2c(c1)OCO2`, the Kd is > 4 mM (inactive).

As to `Cc1n[nH]c(=S)[nH]c1=O`, the Kd is > 4 mM (inactive).

On to `COc1cccc(N2CCNCC2)c1`, for which the Kd is > 4 mM (inactive).

Take `Cc1cc2nc(SCC(=O)O)nc(C)c2cc1C`: the Kd is > 4 mM (inactive).

For the molecule `CC(=O)Nc1ccc(C)cc1NC(C)=O`, the Kd is > 4 mM (inactive).

`N#Cc1cnn2c(C(F)(F)F)cc(C(F)(F)F)nc12`: the Kd was > 4 mM (inactive).

As for `COC(=O)N(c1ccccc1)P1(=S)OCCO1`, the Kd was > 4 mM (inactive).

For the molecule `CN1C(=O)c2ccc(N=C3NC(=O)CS3)cc2C1=O`, the Kd was > 4 mM (inactive).

On to `COc1cc2c3cc1Oc1cc(ccc1O)C[C@@H]1c4c(cc(OC)c(O)c4Oc4ccc(cc4)C[C@@H]3N(C)CC2)CC[N+]1(C)C`, for which the Kd was > 4 mM (inactive).

On to `COc1cccc(OC)c1C(=O)N1CCOCC1`, for which the Kd is > 4 mM (inactive).

Take `CC1CCC2(OC1)OC1CC3C4CCC5C[C@@H](O)CCC5(C)C4=CCC3(C)C1[C@@H]2C` (some centres undefined): the Kd was > 4 mM (inactive).

`Cc1occc1C(=O)Nc1ccc2c(c1)CCC2`: the Kd was > 4 mM (inactive).

As to `Cc1c(N=Cc2ccco2)c(=O)n(-c2ccccc2)n1C`, the Kd was > 4 mM (inactive).

For `COc1ccc(/C=C2/SC(N)=NC2=O)c(OC)c1`, the Kd is > 4 mM (inactive).

Take `Cc1c(C(=O)N2CCOCC2)oc2c1C(=O)CC(C)(C)C2`: the Kd is > 4 mM (inactive).

Take `C/C(=C\CO)CC[C@H](C)CCC[C@H](C)CCCC(C)C`: the Kd is > 4 mM (inactive).

With `NC1=NC(=O)/C(=C/c2ccccc2[N+](=O)[O-])S1`, the Kd was > 4 mM (inactive).

For the molecule `NCc1cccc2c1OCCO2`, the Kd was > 4 mM (inactive).

In the case of `Cc1cc(C(=O)Nc2nnc(C(F)(F)F)s2)no1`, the Kd is > 4 mM (inactive).

For the molecule `Cc1cccc(NC(=O)NC(N)=O)c1`, the Kd is > 4 mM (inactive).

Regarding `CCC(=O)NC(=S)Nc1ccc(N2CCOCC2)cc1`, the Kd was > 4 mM (inactive).

Take `Cc1cc(C(=O)NCc2ccccc2Br)no1`: the Kd is > 4 mM (inactive).

With `c1ccc(-c2csc(Nc3cccnc3)n2)nc1`, the Kd is > 4 mM (inactive).

On to `c1ccc(C[N+]23CCN(CC2)c2ccccc23)cc1`, for which the Kd was > 4 mM (inactive).

On to `N=Cc1c(O)n(-c2cccc(Cl)c2)c(=O)[nH]c1=O`, for which the Kd is > 4 mM (inactive).

As for `Cn1c(=O)[nH]c(=O)c2nsnc21`, the Kd was > 4 mM (inactive).

Consider `COc1cc2c(cc1OC)C(C)NCC2` (centres undefined), for which the Kd was > 4 mM (inactive).

With `CCn1c(-c2c[nH]c3ccccc23)n[nH]c1=S`, the Kd was > 4 mM (inactive).

Consider `CN(C)c1ccc2c(=O)[nH][nH]c(=O)c2c1`, for which the Kd is > 4 mM (inactive).

`COc1ccc(S(=O)(=O)N2CCOCC2)cc1C(C)C`: the Kd was > 4 mM (inactive).

For `C/C=C(\C)c1nnc(NC(=O)c2ccco2)s1`, the Kd was > 4 mM (inactive).

`C[n+]1ccn(C/C(N)=N/O)c1`: the Kd was > 4 mM (inactive).

`c1cncc(-c2nnc(-c3cccnc3)nn2)c1`: the Kd was > 4 mM (inactive).

With `O=C(O)C1CC(=O)N(C2Cc3ccccc3C2)C1` (centres undefined), the Kd is > 4 mM (inactive).

For the molecule `COC(=O)C1Cc2ccccc2N1` (centres undefined), the Kd was > 4 mM (inactive).

Turning to `COc1ncnc(N)c1[N+](=O)[O-]`, the Kd was > 4 mM (inactive).

`O=S1(=O)CCC(NC(=S)N2CCCCC2)C1` (centres undefined): the Kd was > 4 mM (inactive).

Take `Cc1nn(-c2ccccc2)nc1C(=O)O`: the Kd was > 4 mM (inactive).

For `CCOC12NC(=O)CC(=O)N1C(c1ccccc1)=CS2` (centres undefined), the Kd was > 4 mM (inactive).

In the case of `O=C(CCc1n[nH]c(=O)[nH]c1=O)NCc1ccccc1`, the Kd is > 4 mM (inactive).

As for `CCC(=O)NC(=S)Nc1ccc(O)cc1`, the Kd was > 4 mM (inactive).

For the molecule `CCNC(=S)N1CCCC(C(N)=O)C1` (centres undefined), the Kd is > 4 mM (inactive).

As for `O=C(NCc1cccs1)c1nc2ncccn2n1`, the Kd was > 4 mM (inactive).

Consider `Cc1cc2c(nn1)CCc1nonc1-2`, for which the Kd is > 4 mM (inactive).

Take `CC(=O)O[C@H]1CCC2(C)C3=C(CCC2C1(C)C)[C@@]1(C)CC[C@@H](C(C)CCC=C(C)C)[C@]1(C)CC3` (some centres undefined): the Kd was > 4 mM (inactive).

`O=C(NCCO)NC(=S)c1ccccc1`: the Kd is > 4 mM (inactive).

Consider `CN1CCC(N2CCOCC2)CC1`, for which the Kd is > 4 mM (inactive).

Consider `Cn1nnc2cc(C(=O)O)ccc21`, for which the Kd was > 4 mM (inactive).

`COc1cc(NC(=O)c2ccccc2)c(C)cc1N`: the Kd is > 4 mM (inactive).

With `CC(=O)/C=C\[C@@H]1[C@@]2(C)CCCC(C)(C)C2CC[C@@]1(C)O` (some centres undefined), the Kd was > 4 mM (inactive).

Take `Cc1ccc(S(C)(=O)=O)s1`: the Kd is > 4 mM (inactive).

As to `c1ccc(Cc2nn3c(-c4ccncc4)nnc3s2)cc1`, the Kd is > 4 mM (inactive).

Regarding `COC(=O)C1=CCCN(C)C1`, the Kd is > 4 mM (inactive).

With `Cc1nn(C)c(Cl)c1S(=O)(=O)N1CCOCC1`, the Kd is > 4 mM (inactive).
